Consider 8 molecules from patent US11780851B2, “LRRK2 inhibitors” (H. Lundbeck A/S, priority 2021, dated 2023).

The term IC50 denotes the concentration needed to halve the response being measured. As a reminder, the Kp is tissue or fluid exposure divided by exposure in the circulation.

Where two headings read alike, the source gives them in different places.

One data set deals with T1, LRRK2 G2019S (Homo sapiens, UniProt Q5S007, G2019S).
T1 construct: purchased Invitrogen (Life Technologies Corporation)
Description: LRRK2 G2019S kinase activity assay (LanthaScreen TR-FRET). Conditions: 250 pM LRRK2 G2019S, 1.3 mM ATP, 3 h at 30° C.; n≥2 tests. Format: biochemical. In a few lines:
(§1)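 TR-FRET measured phosphorylation of fluorescein-ERM LRRKtide by human LRRK2 residues 970–2527, wild-type or G2019S, detected with a terbium anti-phospho-LRRKtide antibody. The 520/495 nm ratio was normalized to uninhibited and inhibitor controls. IC50 came from a Hill fit, log-averaged over independent experiments.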
For orientation: TR-FRET usually uses a lanthanide donor and a delayed reading to cut background.

In another data set the target is T2, LRRK2 WT (Homo sapiens, UniProt Q5S007).
T2 construct: comprises residue 970 to 2527 of the full length human wild-type LRRK2 kinase; purchased Invitrogen (Life Technologies Corporation)
Description: LRRK2 wild-type kinase activity assay (LanthaScreen TR-FRET). It counts as biochemical. Conditions: 1 nM LRRK2 WT, 1.3 mM ATP, 3.5 h at 30° C.; n≥2 tests. In a few lines: as §1

The subject of data set [1] is pooled donor, cryopreserved hepatocytes. Description: Hepatocyte intrinsic clearance assay. Format: in vitro ADME, human. Conditions: 0.1 μM, 2 h at 37° C., 1×10^6 hepatocytes/mL; * measured on 3 separate occasions, ** on a single occasion. On the procedure:
Test compounds (final concentration 0.1 μM, 0.05% organic) were incubated for 2 h at 37° C., with shaking, in supplemented Leibovitz L-15 media (pH7.4) containing commercially sourced, pooled donor, cryopreserved hepatocytes (final concentration 1×10^6 hepatocytes/m L). The CLint reactions (350 μL) were initiated by addition of test compound. Aliquots (25 μL) were taken at 1, 5, 10, 15, 30, 60, 90 and 120 minutes and then protein crashed with ice-cold acetonitrile containing internal standard (150 μL) then centrifuged (1960 g for 20 minutes at 4° C.). Supernatant was diluted (1:4) with deionized water then analyzed by liquid chromatography (LC)-tandem mass spectrometry (MS/MS). The intrinsic clearances (CLint) were calculated from the slope (k) of the linear regressions of percentages of compound remaining in incubation against incubation time, according to equations 2 and 3.

Data set [2] can be described thus: Rat B/P (brain disposition). Format: in vivo, male Sprague-Dawley rats. Conditions: male, Sprague-Dawley; for concentration at 1 h / Kp uu at 1 h / Kp at 1 h: time point 1.0 h. The method in brief:
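Male Sprague-Dawley rats (n=3, standard body weight) were used to assess brain disposition. Plasma and brain homogenates underwent protein precipitation with acetonitrile containing internal standard, then LC-MS/MS measurement using an optimized method. Compound levels were quantified against matrix-matched calibration standards, and brain Kp was calculated as total brain concentration divided by total plasma concentration.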

Data set [3] can be described thus: Free fraction in plasma (equilibrium dialysis). Format: in vitro ADME, male Sprague-Dawley rat. Conditions: rat plasma, 1 μM, 5 h at 37° C. In a few lines: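 Equilibrium dialysis (12-14 kDa membrane) of male Sprague-Dawley rat or female Gottingen minipig plasma, or rat brain homogenate diluted 1:4, against 100 mM sodium phosphate pH 7.4, compound at 1 μM nominal (≤0.5% DMSO), 5 h at 37 °C. LC/MS-MS quantification; percent free calculated, with dilution factor 4 for brain.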
For orientation: In equilibrium dialysis free small molecules cross a membrane that holds back macromolecules.

Another data set in a line: GSH adduct screening. Format: in vitro ADME, human. Conditions: 1 μM, 3 h at 37° C., HLM 0.5 mg/mL, NADPH, with and without GSH. On the procedure:
Test compounds (final concentration 1 μM, 0.25% organic) were incubated for 3 h at 37° C. in commercially sourced, pooled donor, human liver microsomes (HLM, final concentration 0.5 mg/mL) with and without addition of glutathione (GSH; final concentration […]). The metabolic reaction was initiated by addition of microsomal solution to the mixture of cofactor NADPH (final concentration 1 mM), test compound and GSH. After 3 h of incubation in a water bath at 37° C., the reaction was stopped by addition of 0.2% formic acid in acetonitrile, followed by mixing and centrifugation (16000 g for 5 minutes). Supernatant was diluted (1:1) with HPLC water then analyzed by liquid chromatography (LC)-quadrupole time-of-flight mass spectrometry (QTOF-MS). Accurate mass MS and MS/MS spectra from samples with GSH and without GSH, respectively, were compared to identify detectable GSH and/or cysteine related adducts.

T1 sequence (Q5S007 970-2527 G2019S): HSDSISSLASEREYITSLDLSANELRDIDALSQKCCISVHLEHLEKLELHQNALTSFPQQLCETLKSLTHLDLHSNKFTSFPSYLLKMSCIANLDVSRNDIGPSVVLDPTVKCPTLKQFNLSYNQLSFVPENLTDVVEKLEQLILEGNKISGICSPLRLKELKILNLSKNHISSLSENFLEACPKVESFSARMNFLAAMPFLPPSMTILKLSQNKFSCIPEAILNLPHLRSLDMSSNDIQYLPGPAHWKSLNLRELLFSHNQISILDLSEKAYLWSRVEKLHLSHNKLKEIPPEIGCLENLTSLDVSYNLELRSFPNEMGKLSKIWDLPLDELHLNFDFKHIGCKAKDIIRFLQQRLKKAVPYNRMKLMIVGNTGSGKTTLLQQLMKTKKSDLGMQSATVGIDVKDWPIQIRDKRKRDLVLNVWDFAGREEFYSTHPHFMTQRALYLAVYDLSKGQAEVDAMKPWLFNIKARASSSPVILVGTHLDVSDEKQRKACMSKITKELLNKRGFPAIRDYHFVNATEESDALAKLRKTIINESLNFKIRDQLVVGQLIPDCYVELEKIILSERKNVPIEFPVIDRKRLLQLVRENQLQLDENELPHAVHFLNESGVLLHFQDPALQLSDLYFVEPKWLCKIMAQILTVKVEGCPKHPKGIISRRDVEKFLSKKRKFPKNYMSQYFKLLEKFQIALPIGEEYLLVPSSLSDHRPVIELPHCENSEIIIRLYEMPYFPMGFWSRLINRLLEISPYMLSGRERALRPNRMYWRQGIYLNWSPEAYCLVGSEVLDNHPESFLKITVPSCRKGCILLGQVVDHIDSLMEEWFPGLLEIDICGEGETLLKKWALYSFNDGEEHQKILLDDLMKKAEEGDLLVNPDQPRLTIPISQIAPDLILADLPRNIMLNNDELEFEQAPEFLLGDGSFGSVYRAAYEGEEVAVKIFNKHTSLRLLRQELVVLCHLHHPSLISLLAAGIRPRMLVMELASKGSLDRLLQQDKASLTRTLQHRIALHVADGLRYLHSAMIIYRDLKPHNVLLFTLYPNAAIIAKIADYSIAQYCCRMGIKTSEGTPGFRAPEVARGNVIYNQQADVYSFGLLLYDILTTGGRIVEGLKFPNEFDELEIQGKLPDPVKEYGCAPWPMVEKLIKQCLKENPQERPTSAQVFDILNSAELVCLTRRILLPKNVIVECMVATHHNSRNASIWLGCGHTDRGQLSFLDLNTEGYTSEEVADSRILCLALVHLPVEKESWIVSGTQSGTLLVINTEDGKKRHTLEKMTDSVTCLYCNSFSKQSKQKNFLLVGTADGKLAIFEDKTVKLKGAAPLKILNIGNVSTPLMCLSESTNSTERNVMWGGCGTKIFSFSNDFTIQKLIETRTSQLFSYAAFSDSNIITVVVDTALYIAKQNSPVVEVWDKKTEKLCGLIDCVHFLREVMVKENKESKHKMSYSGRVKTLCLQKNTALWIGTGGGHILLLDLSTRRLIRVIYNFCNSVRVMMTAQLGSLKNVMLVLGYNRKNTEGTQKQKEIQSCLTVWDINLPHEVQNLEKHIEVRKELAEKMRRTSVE
T2 sequence (Q5S007 970-2527): as the sequence (Q5S007 970-2527 G2019S) above, with S1050G counted along it

With `Cc1c2c(nn1[C@H]1CCCOC1)OCCCn1nc(Cl)c3cnc(nc31)N2` (single isomer, unassigned) [Example 4, (R) or (S)-8-Chloro-3-methyl-2-(tetrahydro-2H-pyran-3-yl)-2,4,12,13-tetrahydro-11H-5,7-(azenometheno)dipyrazolo[3,4-b:5′,1′-g][1]oxa[4,6,8]triazacycloundecine], the IC50 was 0.0028 µM on LRRK2 G2019S and 0.012 µM on LRRK2 WT. Further, the “CLint” value in data set [1] was found to be 0.87 L/h/kg. Besides, the concentration at 1 h in data set [2] (brain, oral gavage 10 mg/kg, mean ± stdev, n = 3, read-out: Total brain concentration) worked out at 1360 ± 186 ng/g; in data set [2] (plasma, oral gavage 10 mg/kg, mean ± stdev, n = 3, read-out: Total plasma concentration), 0.758 ± 0.145 µg/mL. Moreover, the Kp uu at 1 h in data set [2] (brain/plasma, oral gavage 10 mg/kg, fubrain from brain homogenate) was determined as 0.42 ± 0.07. Besides, the partition ratio (Kp) at 1 h in data set [2] (brain/plasma, oral gavage 10 mg/kg, mean ± stdev, n = 3) came to 1.82 ± 0.33. In data set [3], the “fuplasma (% free)” value was found to be 25.3 % free.
Take `Cc1c2c(nn1[C@@H]1CCO[C@H](C)C1)OCCCn1nc(Cl)c3cnc(nc31)N2` (single isomer, unassigned) [Example 19]: the IC50 was found to be 0.0039 µM at LRRK2 G2019S and 0.013 µM at LRRK2 WT. For the same molecule, in data set [1], the “CLint” value is listed as less than 0.24 L/h/kg. In addition, in “GSH adduct screening”, the “Adduct detected in GSH supplemented HLMs” value is reported as “+GSH”. Further, the concentration at 0.5 h in data set [2] (brain, oral gavage 10 mg/kg, time point 0.5 h, mean ± stdev, n = 3, read-out: Total brain concentration) stood at 1430 ± 134 ng/g; in data set [2] (plasma, oral gavage 10 mg/kg, time point 0.5 h, mean ± stdev, n = 3, read-out: Total plasma concentration) it was 1.14 ± 0.229 µg/mL. This molecule came in with a Kp uu at 0.5 h in data set [2] (brain/plasma, oral gavage 10 mg/kg, time point 0.5 h, fubrain from brain homogenate) of 0.4 ± 0.04. The molecule further yielded a Kp at 0.5 h in data set [2] (brain/plasma, oral gavage 10 mg/kg, time point 0.5 h, mean ± stdev, n = 3) of 1.28 ± 0.13. The “fuplasma (% free)” value in data set [3] is listed as 24.0 % free.
Turning to `Cc1c2c(nn1[C@H]1CCCOCC1)OCCCn1nc(Cl)c3cnc(nc31)N2` (single isomer, unassigned) [Example 30, (+)-(R) or (S)-8-Chloro-3-methyl-2-(oxepan-4-yl)-2,4,12,13-tetrahydro-11H-5,7-(azenometheno)dipyrazolo[3,4-b:5′,1′-g][1]oxa[4,6,8]triazacycloundecine], the figures for the IC50 on LRRK2 G2019S and at LRRK2 WT were 0.004 µM and 0.012 µM, respectively. Further, the “CLint” value in data set [1] is on record as 0.63 L/h/kg. The concentration at 1 h stood at 427 ± 96 ng/g in data set [2] (brain, oral gavage 5 mg/kg, mean ± stdev, n = 3, read-out: Total brain concentration) and 0.21 ± 0.05 µg/mL in data set [2] (plasma, oral gavage 5 mg/kg, mean ± stdev, n = 3, read-out: Total plasma concentration). The same molecule registered a Kp uu at 1 h in data set [2] (brain/plasma, oral gavage 5 mg/kg, fubrain from brain homogenate) of 0.73 ± 0.06. In addition, the concentration ratio (Kp) at 1 h in data set [2] (brain/plasma, oral gavage 5 mg/kg, mean ± stdev, n = 3) was 2.05 ± 0.18. Besides, the “fuplasma (% free)” value in data set [3] is listed as 26.5 % free.
Take `Cc1c2c(nn1[C@@H]1CCOC[C@H]1F)OCCCn1nc(Cl)c3cnc(nc31)N2` (single isomer, unassigned) [Example 32, (+)-8-Chloro-2-((3S,4R) or (3R,4S)-3-fluorotetrahydro-2H-pyran-4-yl)-3-methyl-2,4,12,13-tetrahydro-11H-5,7-(azenometheno)dipyrazolo[3,4-b:5′,1′-g][1]oxa[4,6,8]triazacycloundecine]: the IC50 on LRRK2 G2019S came to 0.0061 µM; on LRRK2 WT, 0.015 µM. Also, the “CLint” value in data set [1] is less than 0.24 L/h/kg.
With `[2H]C([2H])([2H])c1c2c(nn1[C@H]1CCO[C@@H](C)C1)OCCCn1nc(Cl)c3cnc(nc31)N2` (single isomer, unassigned) [Example 52, (−)-8-Chloro-3-(methyl-d3)-2-((2R,4R) or (2S,4S)-2-methyltetrahydro-2H-pyranyl)-2,4,12,13-tetrahydro-11H-5,7-(azenometheno)dipyrazolo[3,4-b:5′,1′-g][1]oxa[4,6,8]triazacycloundecine], the IC50 worked out at 0.01 µM at LRRK2 G2019S and 0.019 µM on LRRK2 WT. For the same molecule, the “CLint” value in data set [1] is less than 0.24 L/h/kg. In addition, the “Adduct detected in GSH supplemented HLMs” value in the data set “GSH adduct screening” is “+GSH”.
With `[2H]C([2H])([2H])c1c2c(nn1[C@H]1CCCOCC1)OCCCn1nc(Cl)c3cnc(nc31)N2` (single isomer, unassigned) [Example 59, (−)-(R) or (S)-8-Chloro-3-(methyl-d3)-2-(oxepan-4-yl)-2,4,12,13-tetrahydro-11H-5,7-(azenometheno)dipyrazolo[3,4-b:5′,1′-g][1]oxa[4,6,8]triazacycloundecine], the 50% inhibitory concentration (IC50) was found to be 0.0062 µM on LRRK2 G2019S and 0.017 µM on LRRK2 WT. Further, in data set [1], the “CLint” value was found to be 0.40 L/h/kg.
The matching figures for `[2H]C([2H])([2H])c1c2c(nn1[C@@H]1CCCOC1)OCCCn1nc(Cl)c3cnc(nc31)N2` (single isomer, unassigned) [Example 60, (R) or (S)-8-Chloro-3-(methyl-d3)-2-(tetrahydro-2H-pyran-3-yl)-2,4,12,13-tetrahydro-11H-5,7-(azenometheno)dipyrazolo[3,4-b:5′,1′-g][1]oxa[4,6,8]triazacycloundecine]: 0.009 µM, 0.025 µM and 0.51 L/h/kg.
For `[2H]C([2H])([2H])c1c2c(nn1[C@@H]1CCCOC1)OCCCn1nc(Cl)c3cnc(nc31)N2` (single isomer, unassigned) [Example 61, (R) or (S)-8-Chloro-3-(methyl-d3)-2-(tetrahydro-2H-pyran-3-yl)-2,4,12,13-tetrahydro-11H-5,7-(azenometheno)dipyrazolo[3,4-b:5′,1′-g][1]oxa[4,6,8]triazacycloundecine], in that order: 0.01 µM, 0.034 µM and less than 0.24 L/h/kg.
